Like-named read-outs stand apart in the source and are kept apart here. Numbered stars: 1 amine (or outer) side, 2 acyl side, 3 side chain; on linkers, the order of the positions; unused ones are H or OH. Bridge positions count the residues as written; N and C are the ends. Square brackets hold non-standard residues; d marks the D form. Peptide text beside a SMILES is read from it. N(2-Aminoethyl)Gly = O=C(CN(CCN[*:3])[*:1])[*:2]; CO = O=C([*:1])[*:2]; Nlys = NCCCCNCC(=O)O
Key:
[1] = system: Jurkat cell migration across TNFα-stimulated HUVEC; test: Jurkat transmigration across TNFα-stimulated HUVEC monolayer; assay type: cell-based, human; conditions: at 24 h; 1 mg/mL of antagonist; Figure 2B,C
Description: Figure 2 Inhibitory effects of visabron c (4–4) on adhesion (A) and transmigration (B, C) of Jurkat cells through the monolayer of TNFα-activated HUVEC. (A) HUVEC were cultured on 96 well plates to 90% confluence in EGM-2 complete media. TNF-α (10 ng/mL) was added to each well for 16 h. Jurkat cells were labeled with calcein-AM ([…]) by 1 h incubation at 37 °C. After three washes, Jurkat cells (1 × 10^5 cells per mL) were mixed with appropriate concentrations of visabron or 10 μM visabres (inset) in EGM-2 media without FBS and supplements (growth factors) and incubated for 15 min at room temperature. […] Cell cultures extracts were measured using the fluorescence plate reader. […] Chambers were incubated at 37 °C, and measurement of fluorescence was performed at the indicated time points using a fluorescence plate reader with a set up bottom measurement option and using FITC filters. […]
trans-Endothelial leukocyte migration was assessed as follows: HUVEC cells were plated onto collagen type IV (5 μg/mL) coated polycarbonate inserts (Transwell, Costar, Cambridge, MA; diameter, 6.5 mm; pore size, 8 μm for a 24-well plate) in serum-containing endothelial cell growth medium and allowed to grow to confluence over 72 h. […] The medium and all washes were pooled, and the fluorescence in each well was quantified with a SPECTRAFluor Plus plate reader at λex = 485 nm and λem = 530 nm. […]

[2] = system: U937 macrophages-VCAM-1 (α4β1, αMβ2, α3β1, α6β1); test: Adhesion of U937 macrophages to immobilized VCAM-1; assay type: cell-based, human
Description: Cell adhesion assay was carried out as previously described[47] with minor modifications. The day before the experiment, each well was coated with VCAM-1 (3 mg/mL) immobilized on the 96-well plate in PBS by overnight incubation at 4 °C. Thereafter, nonspecific binding was blocked by incubating the wells with 1% (w/v) bovine serum albumin (BSA) in Hank’s Balanced Salt Solution (HBSS) containing 5 mM MgCl2 at room temperature for 1 h before use. The cells were labeled by incubation with 12.5 μM 5-chloromethylfluorescein diacetate (CMFDA) in HBSS without 1% BSA at 37 °C for 30 min. The labeled cells were then centrifuged at 1000 rpm and washed twice with HBSS containing 1% BSA to remove excess CMFDA. Labeled cells (about 1 × 10^5 cells/well) were plated on each well in the presence or absence of visabrons and incubated at 37 °C for 60 min. Unbound cells were removed by washing the wells three times with 1% (w/v) BSA in HBSS, and bound cells were lysed by the addition of 0.5% Triton X-100 (diluted in DDW). The fluorescence in each well was quantified with a SPECTRAFluor Plus plate reader (Tecan), at λex = 485 nm and λem = 530 nm. To determine the number of adhered cells from the fluorescence values, a standard curve was generated by serial dilution of known numbers of CMFDA-labeled cells.

[3] = U937 treated with PMA (10 ng/mL) for 24 h, read-out: IC50 U937 macrophages-VCAM-1 PMA
[4] = untreated U937, read-out: IC50 U937 macrophages-VCAM-1 control

| Compound | Inhibition of Jurkat migration across TNFα-stimulated HUVEC [1] | IC50 [2, 3] | IC50 [2, 4] |
| --- | --- | --- | --- |
| natalizumab: clinical-grade monoclonal antibody anti-α4β1 produced by Biogen Co. [reference compound] | similar | – | – |
| CSCC[C@@H]1NC(=O)[C@H]([C@@H](C)O)NC(=O)CN(C(=O)[C@@H](N)CCCCN)CCNC(=O)NCCN(CC(=O)N[C@@H](CC(C)C)C(N)=O)C(=O)[C@H](CC(=O)O)NC(=O)[C@H](CC(C)C)NC1=O [visabron c (2–2)] (H-K[N(2-Aminoethyl)Gly]TMLD[N(2-Aminoethyl)Gly]L-NH2; linker 2-7 via CO) | – | 16 µM | 53 µM |
| CSCC[C@@H]1NC(=O)[C@H]([C@@H](C)O)NC(=O)CN(C(=O)[C@@H](N)CCCCN)CCCCNC(=O)NCCCCN(CC(=O)N[C@@H](CC(C)C)C(N)=O)C(=O)[C@H](CC(=O)O)NC(=O)[C@H](CC(C)C)NC1=O [visabron c (4–4)] (H-K[Nlys]TMLD[Nlys]L-NH2; linker 2-7 via CO) | – | 10 µM | 11 µM |

Reference: publication PMC8717366, “Synthesis and Pharmacological Characterization of Visabron, a Backbone Cyclic Peptide Dual Antagonist of α4β1 (VLA-4)/α9β1 Integrin for Therapy of Multiple Sclerosis” (JACS Au, 2021)
